Test results from patent US7820646B2, “Cyclized derivatives as Eg-5 inhibitors” (Novartis Vaccines and Diagnostics, Inc., priority 2007, dated 2010).

Legend:
[1] = target: T1, motor domain of human KSP (Eg 5, KNSL1) (Homo sapiens, UniProt P52732); experiment: Assay for determining KSP activity (microtubule-stimulated ATPase, Biomol Green); settings: KSP motor domain 45 nM, microtubules 35 μg/mL, 1 hour at RT; read-out: Biochemical Activity IC50
T1 construct: KSP motor protein (i.e., the KSP motor domain); made in house
T1 sequence (P52732 18-359 limits assumed): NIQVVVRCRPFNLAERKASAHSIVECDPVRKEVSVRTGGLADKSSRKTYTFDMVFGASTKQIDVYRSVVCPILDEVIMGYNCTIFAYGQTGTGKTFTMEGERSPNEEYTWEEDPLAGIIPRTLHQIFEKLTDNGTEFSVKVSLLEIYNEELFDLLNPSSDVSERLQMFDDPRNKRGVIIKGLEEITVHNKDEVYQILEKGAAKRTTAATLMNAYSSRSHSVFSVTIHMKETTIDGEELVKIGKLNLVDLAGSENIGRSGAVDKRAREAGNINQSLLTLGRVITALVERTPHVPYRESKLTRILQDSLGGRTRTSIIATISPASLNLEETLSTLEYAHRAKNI
From the text: This example provides a representative in vitro assay for determining KSP activity in vitro. Purified microtubules obtained from bovine brain were purchased from Cytoskeleton Inc. (Denver, Colo., USA). The motor domain of human KSP (Eg 5, KNSL1) was cloned, expressed, and purified to greater than 95% homogeneity. Biomol Green was purchased from Affinity Research Products Ltd. (Matford Court, Exeter, Devon, United Kingdom). Microtubules and KSP motor protein (i.e., the KSP motor domain) were diluted in assay buffer (20 mM Tris-HCl (pH 7.5), 1 mM MgCl2, 10 mM DTT and 0.25 mg/mL BSA) to a final concentration of 35 μg/mL microtubules and 45 nM KSP. The microtubule/KSP mixture was then pre-incubated at 37° C. for 10 min to promote the binding of KSP to microtubules.
To each well of the testing plate (384-well plate) containing 1.25 μL of inhibitor or test compound in DMSO (or DMSO only in the case of controls) were added 25 μL of ATP solution (ATP diluted to a concentration of 300 μM in assay buffer) and 25 μL of the above-described microtubule/KSP solution. The plates were incubated at RT for 1 hour. Following incubation, 65 μL of Biomol Green (a malachite green-based dye that detects the release of inorganic phosphate) was added to each well. The plates were incubated for an additional 5-10 minutes then the absorbance at 630 nm was determined using a Victor II plate reader. The amount of absorbance at 630 nm corresponded to the amount of KSP activity in the samples. The IC50 of each inhibitor or test compound was then determined based on the decrease in absorbance at 630 nm at each concentration, via nonlinear regression using either XLFit for Excel or Prism data analysis software by GraphPad Software Inc.

[2] = test system: HCT-15 colon carcinoma; experiment: Inhibition of cellular proliferation in tumor cell lines (CellTiter Glo), HCT-15; type: cell-based; settings: Homo sapiens; HCT-15, 72 hours of continuous compound exposure; read-out: Cell Base Activity GI50 HCT-15
Procedure: (§1) Cells are plated in 96-well plates at densities of about 500 cells per well of a 96-well plate and are allowed to grow for 24 hours. The cells are then treated with various concentrations of compounds for 72 hours. Then, 100 μl of CellTiter Glo is added. CellTiter Glo is a tetrazolium-based assay using the reagent 3-(4,5-dimethylthiazol-2-yl) 5-(3-carboxymethoxyphenyl)-2-(4-sulfophenyl)-2H-tetrazolium (MTS) (U.S. Pat. No. 5,185,450) (see Promega product catalog #G3580, CellTiter 96 Aqueous One Solution Cell Proliferation Assay). The cells are then incubated in the dark for 30 minutes. The amount of luminescence is determined for each well using a Walloc Trilux plate reader, which correlates with the number of cells per well. The number of viable cells in the wells that receive only DMSO (0.5%) serve as an indication of 0% inhibition, while wells without cells serve as 100% inhibition of cell growth. The compound concentration that results in a 50% growth inhibition (GI50) is determined graphically from sigmoidal dose-response curves of log-transformed dose values versus cell counts (percent of control) at 72 hours of continuous compound exposure.
(§2) The cell lines used are listed below.
(§3) The cell proliferation assay is performed as described above.

[3] = test system: HCT-116 colon carcinoma; experiment: Inhibition of cellular proliferation in tumor cell lines (CellTiter Glo), HCT-116; type: cell-based; settings: Homo sapiens; HCT-116, 72 hours of continuous compound exposure; read-out: Cell Base Activity GI50 HCT-116
Procedure: as §1, §2, §3

[4] = test system: parental cell line; experiment: Inhibition of cellular proliferation in tumor cell lines (CellTiter Glo), KB3.1; type: cell-based; settings: Homo sapiens, KB 3-1; KB3.1, 72 hours of continuous compound exposure; read-out: Cell Base Activity GI50 KB3.1
Procedure: as §1, §2, §3

[5] = test system: KB8.5 (KB85 - p-glycoprotein associated multi-drug resistant cell line); experiment: Inhibition of cellular proliferation in tumor cell lines (CellTiter Glo), KB8.5; type: cell-based; settings: KB8.5, 72 hours of continuous compound exposure; read-out: Cell Base Activity GI50 KB8.5
Procedure: as §1, §2, §3

| IC50 [1] [nM] | GI50 [2] [nM] | GI50 [3] [nM] | GI50 [5] [nM] | Compound | GI50 [4] [nM] |
| --- | --- | --- | --- | --- | --- |
| 100 to 1000 | > 1000 | 100 to 1000 | > 1000 | CC(C)(C)[C@H](c1nc(-c2ccccc2)cn1Cc1ccccc1)N1C[C@H](CN)OCC1=O [Compound 6, (6S)-6-(aminomethyl)-4-[(1R)-1-(1-benzyl-4-phenyl-1H-imidazol-2-yl)-2,2-dimethylpropyl]morpholin-3-one] | 100 to 1000 |
| 100 to 1000 | > 1000 | 100 to 1000 | > 1000 | CC(C)(C)[C@H](c1nc(-c2ccccc2)cn1Cc1ccccc1)N1C[C@@H](CN)NCCC1=O [Compound 20, (2R)-2-(aminomethyl)-4-[(1R)-1-(1-benzyl-4-phenyl-1H-imidazol-2-yl)-2,2-dimethylpropyl]-1,4-diazepan-5-one] | 100 to 1000 |
| ≤ 100 |  |  | > 1000 | CC(C)(C)[C@H](c1nc(-c2ccccc2)cn1Cc1ccccc1)N1C[C@@H](CN)N(S(C)(=O)=O)CCC1=O [Compound 21, (2R)-2-(aminomethyl)-4-[(1R)-1-(1-benzyl-4-phenyl-1H-imidazol-2-yl)-2,2-dimethylpropyl]-1-(methylsulfonyl)-1,4-diazepan-5-one] | ≤ 100 |
| 100 to 1000 |  |  |  | CC(C)(C)[C@H](c1nc(-c2ccccc2)cn1Cc1ccccc1)N1C[C@@H](CCN)OCC1=O [Compound 10, (6R)-6-(2-aminoethyl)-4-[(1R)-1-(1-benzyl-4-phenyl-1H-imidazol-2-yl)-2,2-dimethylpropyl]morpholin-3-one] |  |
| ≤ 100 |  |  | 100 to 1000 | CC(C)(C)[C@H](c1nc(-c2ccccc2)cn1Cc1ccccc1)N1C[C@H](CN)COCC1=O [Compound 24, (6S)-6-(aminomethyl)-4-[(1R)-1-(1-benzyl-4-phenyl-1H-imidazol-2-yl)-2,2-dimethylpropyl]-1,4-oxazepan-3-one] | 100 to 1000 |
| ≤ 100 | 100 to 1000 | ≤ 100 | ≤ 100 | CC(C)(C)[C@H](c1nc(-c2cccc(F)c2)cn1Cc1ccccc1)N1C[C@@H](CN)COCC1=O [Compound 27, (6R)-6-(aminomethyl)-4-{(1R)-1-[1-benzyl-4-(3-fluorophenyl)-1H-imidazol-2-yl]-2,2-dimethylpropyl}-1,4-oxazepan-3-one] | ≤ 100 |
| ≤ 100 | ≤ 100 | ≤ 100 | ≤ 100 | CC(C)(C)[C@H](c1nc(-c2cccc(F)c2)cn1Cc1cccc(F)c1)N1C[C@@H](CN)COCC1=O [Compound 28, (6R)-6-(aminomethyl)-4-{(1R)-1-[1-(3-fluorobenzyl)-4-(3-fluorophenyl)-1H-imidazol-2-yl]-2,2-dimethylpropyl}-1,4-oxazepan-3-one] | ≤ 100 |
| ≤ 100 |  | 100 to 1000 | 100 to 1000 | CC(C)(C)[C@H](c1nc(-c2cccc(F)c2)cn1Cc1cc(F)cc(F)c1)N1C[C@@H](CN)COCC1=O [Compound 26, (6R)-6-(aminomethyl)-4-{(1R)-1-[1-(3,5-difluorobenzyl)-4-(3-fluorophenyl)-1H-imidazol-2-yl]-2,2-dimethylpropyl}-1,4-oxazepan-3-one] | 100 to 1000 |
| > 1000 |  |  |  | CC(C)[C@H](c1nc(-c2cccc(Cl)c2)cn1Cc1ccccc1)N1C[C@@H](CN)OCC1=O [Compound 8, (6R)-6-(aminomethyl)-4-{(1R)-1-[1-benzyl-4-(3-chlorophenyl)-1H-imidazol-2-yl]-2-methylpropyl}morpholin-3-one] |  |
| 100 to 1000 |  |  |  | CC(C)(C)[C@H](c1nc(-c2ccccc2)cn1Cc1ccccc1)N1C[C@H](CCN)OCC1=O [Compound 11, (6S)-6-(2-aminoethyl)-4-[(1R)-1-(1-benzyl-4-phenyl-1H-imidazol-2-yl)-2,2-dimethylpropyl]morpholin-3-one] |  |
| 100 to 1000 | > 1000 | 100 to 1000 | > 1000 | CC(C)(C)[C@H](c1nc(-c2ccccc2)cn1Cc1ccccc1)N1CC(CCN)OC1=O (stereo in doubt) [Compound 1, (5R)-5-(2-aminoethyl)-3-[(1R)-1-(1-benzyl-4-phenyl-1H-imidazol-2-yl)-2,2-dimethylpropyl]-1,3-oxazolidin-2-one] | 100 to 1000 |
| ≤ 100 |  |  |  | CC(C)(C)[C@H](c1nc(-c2ccccc2)cn1Cc1ccccc1)N1C[C@@H](CN)CNC(=O)C1=O [Compound 30, (6S)-6-(aminomethyl)-1-[(1R)-1-(1-benzyl-4-phenyl-1H-imidazol-2-yl)-2,2-dimethylpropyl]-1,4-diazepane-2,3-dione] |  |
| 100 to 1000 |  |  | > 1000 | CC(C)(C)[C@H](c1nc(-c2ccccc2)cn1Cc1ccccc1)N1C[C@@H](CO)NCCC1=O [Compound 19, (2S)-4-[(1R)-1-(1-benzyl-4-phenyl-1H-imidazol-2-yl)-2,2-dimethylpropyl]-2-(hydroxymethyl)-1,4-diazepan-5-one] | > 1000 |
| 100 to 1000 |  |  |  | CC(C)(C)[C@H](c1nc(-c2ccccc2)cn1Cc1ccccc1)N1C[C@H](F)CNCC1=O [Compound 31, (6R)-1-[(1R)-1-(1-benzyl-4-phenyl-1H-imidazol-2-yl)-2,2-dimethylpropyl]-6-fluoro-1,4-diazepan-2-one] |  |
| 100 to 1000 |  |  | > 1000 | CC(C)(C)[C@H](c1nc(-c2ccccc2)cn1Cc1ccccc1)N1C[C@H](CN)OCCC1=O [Compound 22, (2S)-2-(aminomethyl)-4-[(1R)-1-(1-benzyl-4-phenyl-1H-imidazol-2-yl)-2,2-dimethylpropyl]-1,4-oxazepan-5-one] | > 1000 |
| 100 to 1000 |  |  | > 1000 | CC(C)(C)[C@H](c1nc(-c2ccccc2)cn1Cc1ccccc1)N1C[C@H](CN)COC1=O [Compound 4, (5S)-5-(aminomethyl)-3-[(1R)-1-(1-benzyl-4-phenyl-1H-imidazol-2-yl)-2,2-dimethylpropyl]-1,3-oxazinan-2-one] | > 1000 |
| > 1000 |  |  |  | CC(C)[C@H](c1nc(-c2cccc(Cl)c2)cn1Cc1ccccc1)N1C[C@H](CCN)OCC1=O [Compound 12, (6S)-6-(2-aminoethyl)-4-{(1R)-1-[1-benzyl-4-(3-chlorophenyl)-1H-imidazol-2-yl]-2-methylpropyl}morpholin-3-one] |  |
| 100 to 1000 |  |  | > 1000 | CC(C)(C)[C@H](c1nc(-c2ccccc2)cn1Cc1ccccc1)N1C[C@@H](F)CNCC1=O [Compound 32, (6S)-1-[(1R)-1-(1-benzyl-4-phenyl-1H-imidazol-2-yl)-2,2-dimethylpropyl]-6-fluoro-1,4-diazepan-2-one] | > 1000 |
| ≤ 100 |  |  | 100 to 1000 | CC(C)(C)[C@H](c1nc(-c2ccccc2)cn1Cc1ccccc1)N1C[C@@H](CN)COC1=O [Compound 5, (5R)-5-(aminomethyl)-3-[(1R)-1-(1-benzyl-4-phenyl-1H-imidazol-2-yl)-2,2-dimethylpropyl]-1,3-oxazinan-2-one] | 100 to 1000 |
